Measurements taken from ChEMBL document CHEMBL1201862, “PubChem BioAssay data set” (2004).
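Compound exposure: 48 hours, 5 concentrations, 96-well plates. At the GI50, growth is halved.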 The source made the active and inactive calls. Rule as the data show it: active = GI50 up to about 1.1 µM and inactive = higher. Non-standard residues stand in square brackets, D forms with d. Residues, ends and D or L forms follow the SMILES beside them. ξ: configuration not given here. *: point of attachment. NMeF = CN[C@@H](Cc1ccccc1)C(=O)O; NMeV = CN[C@H](C(=O)O)C(C)C; ξNMeV = CNC(C(=O)O)C(C)C; Boc = CC(C)(C)OC(=O)*; OBn = c1ccc(CO*)cc1

Key:
Test in all cases: NCI-60 cell line screen, 48 h
CAKI-1 = tested on: CAKI-1
HCC 2998 = tested on: HCC 2998
SN12C = tested on: SN12C
PC-3 = tested on: PC-3
HOP-62 = tested on: HOP-62
K562 = tested on: K562
SF-539 = tested on: SF-539
TK-10 = tested on: TK-10
NCI-H23 = tested on: NCI-H23
A549 = tested on: A549
SK-OV-3 = tested on: SK-OV-3
U-251 = tested on: U-251
MDA-MB-231 = tested on: MDA-MB-231
MOLT-4 = tested on: MOLT-4
NCI-H226 = tested on: NCI-H226
HCT-15 = tested on: HCT-15
M14 = tested on: M14
UACC-62 = tested on: UACC-62
NCI/ADR-RES = tested on: NCI/ADR-RES
HOP-92 = tested on: HOP-92

SMILES | GI50 (CAKI-1) | GI50 (HCC 2998) | GI50 (SN12C) | GI50 (PC-3) | GI50 (HOP-62) | GI50 (K562) | GI50 (SF-539) | GI50 (TK-10) | GI50 (NCI-H23) | GI50 (A549) | GI50 (SK-OV-3) | GI50 (U-251) | GI50 (MDA-MB-231) | GI50 (MOLT-4) | GI50 (NCI-H226) | GI50 (HCT-15) [µM] | GI50 (M14) | GI50 (UACC-62) | GI50 (NCI/ADR-RES) | GI50 (HOP-92)
CC(=O)O[C@H]1CCn2c3c(c(C)c21)C(=O)C(N1CC1)=C(C)C3=O | > 10 µM (inactive) | > 10 µM (inactive) | 7.43 µM (inactive) | > 10 µM (inactive) | 5.2 µM (inactive) | > 10 µM (inactive) | > 10 µM (inactive) | > 10 µM (inactive) | 1.68 µM (inactive) | 3.19 µM (inactive) | > 10 µM (inactive) | > 10 µM (inactive) | > 10 µM (inactive) | > 10 µM (inactive) | > 10 µM (inactive) | > 10 | > 10 µM (inactive) | 9.04 µM (inactive) | > 10 µM (inactive) | 
Oc1ccc(-c2nc3ccc(Cl)cc3s2)cc1 | 20.2 µM (inactive) |  | 19.4 µM (inactive) | 20.4 µM (inactive) |  | 28.2 µM (inactive) | 16.2 µM (inactive) | 20.4 µM (inactive) | 18.3 µM (inactive) | 20.8 µM (inactive) | 20.2 µM (inactive) | 19.7 µM (inactive) | 22.6 µM (inactive) | 26.7 µM (inactive) | 20 µM (inactive) | 15.7 | > 100 µM (inactive) | 16.9 µM (inactive) | 23.4 µM (inactive) | 
C/C(=N\N=C(/S)N1CC2CCC(CC2)C1)c1ccncn1 | < 0.01 µM (active) |  | 0.0152 µM (active) | < 0.01 µM (active) | 0.108 µM (active) | < 0.01 µM (active) | < 0.01 µM (active) | < 0.01 µM (active) | < 0.01 µM (active) | < 0.01 µM (active) | < 0.01 µM (active) | < 0.01 µM (active) |  | < 0.01 µM (active) | < 0.01 µM (active) | < 0.01 | < 0.01 µM (active) | < 0.01 µM (active) | < 0.01 µM (active) | 
CC(C)C(C(=O)N(C)[C@H](C(=O)N1CCC[C@H]1C(=O)N(C)[C@@H](Cc1ccccc1)C(=O)OCc1ccccc1)C(C)C)N(C)C(=O)[C@@H](NC(=O)OC(C)(C)C)C(C)C (stereo not given in full) (Boc-V[ξNMeV][NMeV]P[NMeF]-OBn) | > 31.6 µM (inactive) | > 10 µM (inactive) | > 100 µM (inactive) |  | > 31.6 µM (inactive) | 4.42 µM (inactive) | > 31.6 µM (inactive) | 29.2 µM (inactive) | 19.5 µM (inactive) | 18.7 µM (inactive) | > 31.6 µM (inactive) | > 31.6 µM (inactive) |  | 5.37 µM (inactive) | > 63.5 µM (inactive) | 8.65 | 85.1 µM (inactive) | > 31.6 µM (inactive) |  | 10.2 µM (inactive)
